B1: IL-7 (protein, UniProt P13232 26-177, looked up)
Interleukin-7: DCDIEGKDGKQYESVLMVSIDQLLDSMKEIGSNCLNNEFNFFKRHICDANKEGMFLFRAARKLRQFLKMNSTGDFDLHLLKVSEGTTILLNCTGQVKGRKPAALGEAQPTKSLEENKSLKEQKKLNDLCFLKRLLQEIKTCWNKILMGTKEH

Legend:
[1] = test system: primary human naïve CD8+ T cells; assay type: cell-based
[2] = test system: murine CD8+ T cells; assay: IFN-γ expression and proliferation of murine CD8+ T cells; assay type: cell-based, mouse
[3] = test system: CoV2 RBD protein; set-up: species or system SARS-CoV-2; conditions: in vivo

Row | Molecule | development of TMSCs [1] | TMSC formation [1] | further results
1 | 6-bromo-substituted indirubin [BIO] | promoted the development of TMSCs |  | 
2 | O=C1Cc2c([nH]c3ccc(Br)cc23)-c2ncccc2N1 [1-Azakenpaullone] | promoted the development of TMSCs |  | 
3 | CC(=O)O/N=C1/C(=C2/C(=O)Nc3cc(Br)ccc32)Nc2ccccc21 [BIO-acetoxime] | promoted the development of TMSCs |  | 
4 | Nc1cccc(-c2cc3c(Oc4cccc(O)c4)ncnc3[nH]2)c1.O=C(O)C(F)(F)F.O=C(O)C(F)(F)F [TWS119] |  | could not induce TMSC formation | IFN-γ expression ([2]; 4 days post treatment): inhibited; T cell proliferation ([2]; CFSE proliferation staining): inhibited
5 | IL-15 |  | only a moderate advantage | TMSC expansion in culture [1]: significantly expanded TMSCs
6 | Polyinosinic:polycytidylic acid [poly(I:C)] |  |  | humoral response [3]: strong humoral response; ratio of IgG2b to IgG1 titer [3]: balanced Th1/Th2 profile or Th2-dominant response
7 | B1 |  | only a moderate advantage | TMSC expansion in culture [1]: significantly expanded TMSCs

Reference: patent US20250049911A1, “I[…] FOR IMMUNOTHERAPEUTIC AND OTHER USES” (priority 2021, published 2025)
